According to PMC11189555, “Aryl amino acetamides prevent Plasmodium falciparum ring development via targeting the lipid-transfer protein PfSTART1” (Nature Communications, 2024):
“And” between values parts separate entries of the source, which are not always exact repeats. Equal values may be shown once. Read-outs that look alike come from different tables or passages of the source.

Test system: SLI-N330K parasites
Experiment: Growth inhibition assay (72 h, LDH activity)
Assay type: cell-based, Plasmodium falciparum
Conditions: for Growth inhibition, (1 - av / DMSO) x 100: Fig 2B source data, per biological replicate; for EC50: Plasmodium falciparum
Description: Parasite growth assays with inhibitory compounds were performed as per[11] and are fully described in the Supplementary Information.
Molecular biology and transfection of P. falciparum: Selection Linked Integration […]
To introduce the PfSTART1 mutations, the second half of the coding sequence of pfstart1 (PF3D7_0104200), was recodonised without introns to the bias of Saccharomyces cerevisiae containing either WT, N309K or N330K mutations, and synthesised as gBlock fragments (Integrated DNA Technologies). The first 819 bp of the 5′ native sequence of pfstart1 was amplified from gDNA, to form the 5’ homology block (5’ HB). The 3′ recodonised gBlock fragment comprising of the last 552 bp of either the WT, N309K or N330K pfstart1 to form the ‘recodon’ block (primers listed in Table S2). The 5’ HB and recodon products were sewn together by overlapping PCR to reconstitute the full coding sequence of pfstart1. These blocks (WT/N309K/N330K) were digested with BglII/PstI, and inserted into the parasite vector p-HA-2A-Neo-glmS
1. This plasmid contains an in -frame haemagglutinin (HA) epitope for protein identification and a P2A peptide (2A) to skip continuous peptide bond synthesis of a downstream neomycin resistance gene ( NeoR).
Parasites containing the transfected DNA were selected using 2.5 nM WR99210 (Jacobus). To select for parasites in which single crossover integration had occurred into the pfstart1 locus, parasites were treated with 400 μg/mL G418 (geniticin, Sigma Aldrich) for 14 days: only parasites that have integrated the construct into their genome expressed the neomycin resistance gene together with the PfSTART1 protein.
Parasite lines were cloned using limiting dilution. These clones were then tested on Western Blot (for correct HA-tagging and protein size), and correct integration and sequence were tested by PCR analysis: PCR on the gDNA was conducted using the primers START_5’UTR.F and START_Seq.R (Table S2). […]
Growth inhibition assays. Synchronised ring-stage parasites (0.3-0.6% parasitemia, 2% haematocrit) were grown for 72 h in a serial-dilution of the compound under […]
and compound 4. Note that M-833 was first purchased from MolPort (MolPort -002-267-916) then made in-house at WEHI: the differences observed in EC50s across experiments are attributed to the different batches of M -833. For some experiments, 0, 0.25 or 2.5 mM of glucosamine (GlcN) was also added. Experiments were set up in technical duplicates or triplicates. Following a freeze -thaw cycle, lactate dehydrogenase (LDH) activity was assessed as an indicator of parasite growt h 5. 30 μL of parasite culture was incubated for 30 min in the dark with 75 μL Malstat mixture (0.1 M Tris pH 9.0, 20 g/L lactic acid, pH 7.5, 0.2% Triton-X100, 0.5 g/L acetylpyridine adenine dinucleotide (APAD, Sigma), 200 μg/mL nitroblue tetrazolium (NBT; Sigma), 1 μg/mL phenozine ethosulfate (PES; Sigma)). Absorbance was then measured at 650 nm, transformed using the formula below, plotted against the logarithm of the concentrations, and a non-linear regression (log(inhibitor) vs. response, variable slope) was calculated using GraphPad Prism to assess the half-inhibitory […]
Growth inhibition % = (1 − average(sample)− average(uRBC)) ∗ 100 […]
The DMSO samples were also used to assess growth of parasite in the presence of 0.25 and 2.5 mM GlcN (normalised by DMSO in 0 mM GlcN).
Egress, invasion & recovery assay. To measure egress, invasion and follow up recovery in the presence of different compounds, we adapted the method developed in6, using Hyp1-Nluc parasites7. These parasites episomally express the exported PEXEL protein Hyp1 (PF3D7_0113300) tagged with a NanoLuc luciferase (NLuc) and were selected with 2.5 nM WR99210 (Jacobus). Highly synchronised schizonts were obtained using ML10 (LifeArc) and sorbitol synchronisation, and Percoll-purified (the culture was gently layered over 67% Percoll (Cytiva) in RPMI, and centrifuged for 15 min at 1500 g and the schizont layer was collected and washed). […]

SMILES: Cc1cc(Cl)c(S(=O)(=O)N2CCCC2)cc1OCC(=O)NC1CCCCC1 [M-833]
- sample/DMSO (0.123457 uM M-833, START(N330K), 0.25 mM GlcN, biological replicate 4): -2.981
- sample/DMSO (0.123457 uM M-833, START(N330K), 2.5 mM GlcN, biological replicate 1): 25.4075
- sample/DMSO (0.123457 uM M-833, START(N330K), 2.5 mM GlcN, biological replicate 2): 9.59
- sample/DMSO (0.123457 uM M-833, START(N330K), 2.5 mM GlcN, biological replicate 3): 1.226
- sample/DMSO (0.123457 uM M-833, START(N330K), 2.5 mM GlcN, biological replicate 4): -0.1405
- sample/DMSO (0.37037 uM M-833, START(N330K), 0 mM GlcN, biological replicate 1): 19.3431
- sample/DMSO (0.37037 uM M-833, START(N330K), 0 mM GlcN, biological replicate 2): 2.274
- sample/DMSO (0.37037 uM M-833, START(N330K), 0 mM GlcN, biological replicate 3): 7.66
- sample/DMSO (0.37037 uM M-833, START(N330K), 0 mM GlcN, biological replicate 4): -3.175
- sample/DMSO (0.37037 uM M-833, START(N330K), 0.25 mM GlcN, biological replicate 1): 19.0968
- sample/DMSO (0.37037 uM M-833, START(N330K), 0.25 mM GlcN, biological replicate 2): 15.8158
- sample/DMSO (0.37037 uM M-833, START(N330K), 0.25 mM GlcN, biological replicate 3): 6.853
- sample/DMSO (0.37037 uM M-833, START(N330K), 0.25 mM GlcN, biological replicate 4): -2.547
- sample/DMSO (0.37037 uM M-833, START(N330K), 2.5 mM GlcN, biological replicate 1): 28.3178
- sample/DMSO (0.37037 uM M-833, START(N330K), 2.5 mM GlcN, biological replicate 2): 11.3273
- sample/DMSO (0.37037 uM M-833, START(N330K), 2.5 mM GlcN, biological replicate 3): 5.76
- sample/DMSO (0.37037 uM M-833, START(N330K), 2.5 mM GlcN, biological replicate 4): 6.979
- sample/DMSO (1.11111 uM M-833, START(N330K), 0 mM GlcN, biological replicate 1): 22.4532
- sample/DMSO (1.11111 uM M-833, START(N330K), 0 mM GlcN, biological replicate 2): 7.959
- sample/DMSO (1.11111 uM M-833, START(N330K), 0 mM GlcN, biological replicate 3): 16.7199
- sample/DMSO (1.11111 uM M-833, START(N330K), 0 mM GlcN, biological replicate 4): 4.969
- sample/DMSO (1.11111 uM M-833, START(N330K), 0.25 mM GlcN, biological replicate 1): 24.0145
- sample/DMSO (1.11111 uM M-833, START(N330K), 0.25 mM GlcN, biological replicate 2): 17.1338
- sample/DMSO (1.11111 uM M-833, START(N330K), 0.25 mM GlcN, biological replicate 3): 18.125
- sample/DMSO (1.11111 uM M-833, START(N330K), 0.25 mM GlcN, biological replicate 4): 8.022
- sample/DMSO (1.11111 uM M-833, START(N330K), 2.5 mM GlcN, biological replicate 1): 36.9907
- sample/DMSO (1.11111 uM M-833, START(N330K), 2.5 mM GlcN, biological replicate 2): 15.1494
- sample/DMSO (1.11111 uM M-833, START(N330K), 2.5 mM GlcN, biological replicate 3): 17.4656
- sample/DMSO (1.11111 uM M-833, START(N330K), 2.5 mM GlcN, biological replicate 4): 7.728
- Growth inhibition, (1 - av / DMSO) x 100 (SLI-N330K, M-833 conc 0.00304832 (unit not given)): -17.2829% and -4.43% and -6.85%
- Growth inhibition, (1 - av / DMSO) x 100 (SLI-N330K, M-833 conc 0.00914495 (unit not given)): -20.2465% and -6.679% and -8.021%
- Growth inhibition, (1 - av / DMSO) x 100 (SLI-N330K, M-833 conc 0.0274348 (unit not given)): -22.4472% and -9.048% and -10.9244%
- Growth inhibition, (1 - av / DMSO) x 100 (SLI-N330K, M-833 conc 0.0823045 (unit not given)): -27.3474% and -6.202% and -4.991%
- Growth inhibition, (1 - av / DMSO) x 100 (SLI-N330K, M-833 conc 0.246914 (unit not given)): -20.5399% and -4.464% and 0.9677%
- Growth inhibition, (1 - av / DMSO) x 100 (SLI-N330K, M-833 conc 0.740741 (unit not given)): -11.4437% and -0.9712% and 2.699%
- Growth inhibition, (1 - av / DMSO) x 100 (SLI-N330K, M-833 conc 2.22222 (unit not given)): 10.9155% and 8.4% and 12.8088%
- Growth inhibition, (1 - av / DMSO) x 100 (SLI-N330K, M-833 conc 6.66667 (unit not given)): 48.6796% and 44.0109% and 38.2735%
- Growth inhibition, (1 - av / DMSO) x 100 (SLI-N330K, M-833 conc 20 (unit not given)): 69.4542% and 76.7081% and 72.5236%
- sample/DMSO (M-833 3.33333 uM, START(N330K), 0 mM GlcN, biological replicates 1-4): 23.2009 and 27.766 and 32.1009 and 22.2063
- sample/DMSO (M-833 3.33333 uM, START(N330K), 0.25 mM GlcN, biological replicates 1-4): 36.1845 and 29.2292 and 28.75 and 22.2222
- sample/DMSO (M-833 3.33333 uM, START(N330K), 2.5 mM GlcN, biological replicates 1-4): 45.6636 and 29.3607 and 33.6678 and 26.3232
- sample/DMSO (M-833 10 uM, START(N330K), 0 mM GlcN, biological replicates 1-4): 60.4059 and 63.1206 and 59.1558 and 63.3004
- sample/DMSO (M-833 10 uM, START(N330K), 0.25 mM GlcN, biological replicates 1-4): 65.2315 and 63.5636 and 70.0446 and 58.3469
- sample/DMSO (M-833 10 uM, START(N330K), 2.5 mM GlcN, biological replicates 1-4): 68.4226 and 62.1265 and 64.6971 and 47.1194
- EC50 (Fig 2B, SLI-N330K, 72 h, n = 3, unit only in x-axis title, read-out: EC50 (95% confidence interval)): 6.27 µM
- EC50 (Fig 3C, SLI-N330K, 2.5 mM GlcN, n = 4, unit on plot axis, read-out: EC50 M-833 (95% confidence interval)): > 3 µM
- fold more resistant than the 3D7 parental parasites (SLI-N330K, Fig 2B): 64 fold
